# Reference: ChEMBL document CHEMBL2440103, “Synthesis, docking, and biological studies of phenanthrene β-diketo acids as novel HIV-1 integrase inhibitors” (Bioorg Med Chem Lett, 2013)
# pEC50, pIC50: −log10 of the molar value.
# Biological target: T1, Human immunodeficiency virus type 1 integrase (Human immunodeficiency virus 1, UniProt Q7ZJM1)
# Experiment: Inhibition of Human immunodeficiency virus 1 integrase strand transfer activity after 30 mins by polyacrylamide gel electrophoresis
# Conditions: not given
# T1 sequence (Q7ZJM1 whole entry): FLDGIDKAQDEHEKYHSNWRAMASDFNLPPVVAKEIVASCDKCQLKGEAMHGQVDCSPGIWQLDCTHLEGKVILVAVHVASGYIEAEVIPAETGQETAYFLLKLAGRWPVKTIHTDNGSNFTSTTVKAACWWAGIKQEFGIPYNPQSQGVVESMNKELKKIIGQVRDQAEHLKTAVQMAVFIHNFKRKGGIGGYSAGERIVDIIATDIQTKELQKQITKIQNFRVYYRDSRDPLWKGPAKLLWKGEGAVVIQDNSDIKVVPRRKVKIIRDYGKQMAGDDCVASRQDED
row,SMILES,pIC50
1,O=C(O)C(=O)CC(=O)c1ccc2c(ccc3c(Cl)cccc32)c1,5.40
2,O=C(O)C(=O)CC(=O)c1ccc2ccc3cc(F)ccc3c2c1F,5.10
3,O=C(O)C(=O)CC(=O)c1ccc2c(ccc3cc(Cl)ccc32)c1,5.85
4,O=C(O)C(=O)CC(=O)c1ccc2ccc3c(F)cccc3c2c1,5.52
5,O=C(O)C(=O)CC(=O)c1ccc2c(ccc3ccc(Cl)cc32)c1,5.89
6,COc1ccc2c(c1)cc(C(=O)CC(=O)C(=O)O)c1c(F)cccc12,5.22
7,O=C(O)C(=O)CC(=O)c1ccc2c(ccc3c(F)cccc32)c1,5.40
8,COc1ccc2c(c1)cc(C(=O)CC(=O)C(=O)O)c1ccccc12,5.52
9,O=C(O)C(=O)CC(=O)c1ccc2ccc3ccccc3c2c1F,4.20
10,O=C(O)C(=O)CC(=O)c1ccc2ccc3c(Cl)cccc3c2c1,5.92

# Biological target: T1, Human immunodeficiency virus type 1 integrase
# Experiment: Inhibition of Human immunodeficiency virus 1 integrase-mediated 3'-processing after 30 mins by polyacrylamide gel electrophoresis
# Conditions: not given
row,SMILES,pIC50
1,O=C(O)C(=O)CC(=O)c1ccc2c(ccc3c(Cl)cccc32)c1,4.72
2,O=C(O)C(=O)CC(=O)c1ccc2ccc3cc(F)ccc3c2c1F,4.20
3,O=C(O)C(=O)CC(=O)c1ccc2c(ccc3cc(Cl)ccc32)c1,4.92
4,O=C(O)C(=O)CC(=O)c1ccc2ccc3c(F)cccc3c2c1,4.96
5,O=C(O)C(=O)CC(=O)c1ccc2c(ccc3ccc(Cl)cc32)c1,5.30
6,COc1ccc2c(c1)cc(C(=O)CC(=O)C(=O)O)c1c(F)cccc12,4.36
7,O=C(O)C(=O)CC(=O)c1ccc2c(ccc3c(F)cccc32)c1,4.46
8,COc1ccc2c(c1)cc(C(=O)CC(=O)C(=O)O)c1ccccc12,4.49
9,O=C(O)C(=O)CC(=O)c1ccc2ccc3ccccc3c2c1F,4.08
10,O=C(O)C(=O)CC(=O)c1ccc2ccc3c(Cl)cccc3c2c1,4.96

# Test system: Human immunodeficiency virus 1
# Experiment: Antiviral activity against Human immunodeficiency virus 1 infected in human PBMC assessed as inhibition of viral replication after 5 days by RT-PCR method
# Format: functional, organism-based
# Conditions: Human immunodeficiency virus 1, 120 h
row,SMILES,pEC50
1,O=C(O)C(=O)CC(=O)c1ccc2c(ccc3cc(Cl)ccc32)c1,4.68
2,O=C(O)C(=O)CC(=O)c1ccc2c(ccc3ccc(Cl)cc32)c1,4.56

# Test system: PBMC
# Experiment: Cytotoxicity against human PBMC
# Format: cell-based
# Conditions: not given
row,SMILES,pIC50
1,O=C(O)C(=O)CC(=O)c1ccc2c(ccc3cc(Cl)ccc32)c1,4.85
2,Cc1cn([C@H]2C[C@H](N=[N+]=[N-])[C@@H](CO)O2)c(=O)[nH]c1=O [ZIDOVUDINE],< 4.00
3,O=C(O)C(=O)CC(=O)c1ccc2c(ccc3ccc(Cl)cc32)c1,5.40

# Test system: CCRF-CEM
# Experiment: Cytotoxicity against human CEM cells
# Format: cell-based
# Conditions: not given
row,SMILES,pIC50
1,O=C(O)C(=O)CC(=O)c1ccc2c(ccc3cc(Cl)ccc32)c1,4.92
2,O=C(O)C(=O)CC(=O)c1ccc2c(ccc3ccc(Cl)cc32)c1,4.88

# Test system: Vero
# Experiment: Cytotoxicity against african green monkey Vero cells
# Format: cell-based
# Conditions: Chlorocebus sabaeus
row,SMILES,pIC50
1,O=C(O)C(=O)CC(=O)c1ccc2c(ccc3cc(Cl)ccc32)c1,5.14
2,O=C(O)C(=O)CC(=O)c1ccc2c(ccc3ccc(Cl)cc32)c1,5.35

# Biological target: Human immunodeficiency virus type 1 integrase (Human immunodeficiency virus 1) (UniProt Q7ZJM1)
# Experiment: Selectivity ratio of IC50 for Human immunodeficiency virus 1 integrase-mediated 3'-processing to IC50 for Human immunodeficiency virus 1 integrase strand transfer activity
# Conditions: not given
# Chain of Human immunodeficiency virus type 1 integrase (Human immunodeficiency virus 1) (Q7ZJM1 as listed by the source): as the sequence (Q7ZJM1 whole entry) above
row,SMILES,Ratio IC50
1,O=C(O)C(=O)CC(=O)c1ccc2c(ccc3cc(Cl)ccc32)c1,9
